Data taken from patent publication US5324648A, “Substituted isocoumarins as serine protease inhibitors and anti-inflammatory agents” (Georgia Tech Research Corporation, priority 1992, dated 1994).
Where two headings read alike, the source gives them in different places. Each block holds one molecule with its values, some of them ahead of it.

Legend:
complement protein C2 = target: T1, complement protein C2 (Homo sapiens, UniProt P06681); assay: Inactivation rate of complement protein C2; format: biochemical; conditions: for kinact/KI: Table II, pH 7.5, 25° C, [I] 0.19 to 1.25 mM, read-out: kobs/[I]
T1 sequence (P06681 21-752): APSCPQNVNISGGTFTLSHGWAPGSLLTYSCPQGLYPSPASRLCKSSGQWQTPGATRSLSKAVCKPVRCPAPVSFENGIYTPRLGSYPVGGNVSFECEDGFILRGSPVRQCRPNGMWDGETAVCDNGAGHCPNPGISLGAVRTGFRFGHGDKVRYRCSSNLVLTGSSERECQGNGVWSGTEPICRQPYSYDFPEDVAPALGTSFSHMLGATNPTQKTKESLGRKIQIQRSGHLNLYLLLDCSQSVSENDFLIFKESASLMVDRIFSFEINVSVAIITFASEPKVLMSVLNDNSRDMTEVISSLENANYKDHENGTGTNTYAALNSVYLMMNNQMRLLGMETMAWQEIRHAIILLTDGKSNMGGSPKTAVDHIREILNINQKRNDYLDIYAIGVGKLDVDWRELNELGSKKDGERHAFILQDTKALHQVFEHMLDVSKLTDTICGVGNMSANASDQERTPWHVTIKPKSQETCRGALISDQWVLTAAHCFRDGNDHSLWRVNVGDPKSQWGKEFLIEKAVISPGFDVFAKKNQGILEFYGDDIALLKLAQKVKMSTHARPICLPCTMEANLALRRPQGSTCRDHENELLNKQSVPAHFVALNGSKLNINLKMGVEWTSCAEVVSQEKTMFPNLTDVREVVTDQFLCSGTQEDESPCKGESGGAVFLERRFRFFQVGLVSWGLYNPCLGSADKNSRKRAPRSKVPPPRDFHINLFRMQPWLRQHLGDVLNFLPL
Method: (§1) Inactivation rates of serine proteases by substituted isocoumarins were measured by the incubation method. An aliquot of inhibitor (25 or 50 μl) in Me2 SO was added to a buffered enzyme solution (0.01-2.3 μM) to initiate the inactivation. Aliquots (50 μl) were withdrawn at various intervals and the residual enzymatic activity was measured. Me2 SO concentration in the reaction mixture was 8-12% (v/v). 0.1 Hepes, 0.01M CaCl2, pH 7.5 buffer was utilized for trypsin and coagulation enzymes. 0.1M Hepes, 0.5M NaCl, pH 7.5 was utilized for other serine proteases. The inhibitor concentrations are shown in all the tables. Peptide thioesters or peptide nitroanilides with appropriate sequence were used as substrates for various serine proteases. All peptide thioester hydrolysis rates were measured with assay mixtures containing 4,4'-dithiodipyridine (ε324 =19800M^-1 cm^-1; Grasetti & Murray, Arch. Biochem. Biophys. 119, pp 41-49 (1967)). Peptide 4-nitroanilide nitroanilide hydrolysis was measured at 410 nm (ε410 =8800M^-1 cm^-1; Erlanger et al., Arch. Biochem. Biophys. 95, pp 271-278 (1961)). First order inactivation rate constant (kobs) were obtained from plots of ln (vt /vo) vs time, and the correlation coefficients were greater than 0.98.
(§2) ^a Conditions were 0.1M Hepes, 0.5M NaCl, pH 7.5, 8-10% Me2 SO
(§3) and 25° C. Inactivation rates were measured by incubation method.
(§4) Enzyme concentrations were as follows: protein D, 1-9 μM; C2, 0.7-1
(§5) μM; B, 1.8 μM; Bb, 0.3-0.8 μM; Cl^- s, 0.07 μM; Cl^-

complement protein B = complement protein B (Homo sapiens, UniProt P00751); assay: Inactivation rate of complement protein B; format: biochemical; conditions: for kinact/KI: Table II, pH 7.5, 25° C, [I] 0.19 to 1.25 mM, read-out: kobs/[I]
Method: as §1, §2, §3, §4, §5

human granzyme A = target: T2, human granzyme A (Homo sapiens, UniProt P12544); assay: Inactivation rate of human granzyme A; format: biochemical; conditions: Table VII; pH 7.5, 25° C; [I] 0.4 to 45 μM; read-out: kobs/[I]
T2 construct: human cytotoxic lymphocyte granzyme A; endogenous in cells; host or cells: human cytotoxic lymphocytes
T2 sequence (P12544 29-262): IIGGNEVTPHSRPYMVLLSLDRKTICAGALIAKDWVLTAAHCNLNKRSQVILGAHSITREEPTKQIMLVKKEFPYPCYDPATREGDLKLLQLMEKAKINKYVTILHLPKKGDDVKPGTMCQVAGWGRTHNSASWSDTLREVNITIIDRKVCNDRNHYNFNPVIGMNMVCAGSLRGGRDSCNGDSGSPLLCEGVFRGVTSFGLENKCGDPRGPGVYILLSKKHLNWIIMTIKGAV
Method: as §1
^a Inactivation rates were measured at 0.1M Hepes, 0.01M CaCl2,
pH 7.5, 8% Me2 SO and 25° C. by incubation method. ZArg-SBzl
(74-85 μM) was used as the substrate to monitor the residual enzymatic

[1] = Prothrombin time (PT), rabbit plasma
Method: ^a Plasma and inhibitor were incubated at 37° C. for 1 min.,
Dade thromboplastin reagent was then added.
^b Plasma and inhibitor were incubated at 37° C. for 3 min.,
Orthobrain thromboplastin reagent was then added.

Bb = target: T3, Bb (Homo sapiens, UniProt P00751); assay: Inactivation rate of complement fragment Bb; format: biochemical; conditions: Table II; pH 7.5, 25° C; [I] 0.05 to 1.25 mM; read-out: kobs/[I]
T3 construct: active fragments C2a, Bb
Method: as §1, §2, §3, §4, §5

[2] = Spontaneous hydrolysis in human plasma; format: in vitro ADME; conditions: for half-life: human plasma, read-out: t1/2 for spontaneous hydrolysis
human factor Xa = target: T4, human factor Xa (Homo sapiens, UniProt P00742); assay: Inactivation rate of human factor Xa; format: biochemical; conditions: pH 7.5, 25° C, read-out: kobs/[I]
T4 construct: human factor Xa
Method in brief: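 First-order kobs came from ln(vt/vo)-versus-time plots of remaining activity, measured on timed aliquots with thioester or nitroanilide substrates. Enzyme at 0.01-2.3 μM was preincubated with inhibitor at 25° C in pH 7.5 Hepes/0.01M CaCl2 buffer containing 8-12% Me2SO.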

T4 sequence (P00742 235-488 limits assumed): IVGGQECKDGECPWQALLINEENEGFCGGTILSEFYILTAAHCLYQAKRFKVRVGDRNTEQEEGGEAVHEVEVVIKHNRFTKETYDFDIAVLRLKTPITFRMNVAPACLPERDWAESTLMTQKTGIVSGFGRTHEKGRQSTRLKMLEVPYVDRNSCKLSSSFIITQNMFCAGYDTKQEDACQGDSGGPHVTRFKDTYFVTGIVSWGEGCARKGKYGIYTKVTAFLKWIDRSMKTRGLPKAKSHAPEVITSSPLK
T4 sequence (P00742 41-179 partner limits assumed): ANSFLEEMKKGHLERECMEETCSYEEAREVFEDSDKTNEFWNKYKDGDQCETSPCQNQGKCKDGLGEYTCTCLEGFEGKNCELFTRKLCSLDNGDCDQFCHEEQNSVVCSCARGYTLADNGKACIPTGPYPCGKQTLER
complement protein B, sequence (P00751 26-764): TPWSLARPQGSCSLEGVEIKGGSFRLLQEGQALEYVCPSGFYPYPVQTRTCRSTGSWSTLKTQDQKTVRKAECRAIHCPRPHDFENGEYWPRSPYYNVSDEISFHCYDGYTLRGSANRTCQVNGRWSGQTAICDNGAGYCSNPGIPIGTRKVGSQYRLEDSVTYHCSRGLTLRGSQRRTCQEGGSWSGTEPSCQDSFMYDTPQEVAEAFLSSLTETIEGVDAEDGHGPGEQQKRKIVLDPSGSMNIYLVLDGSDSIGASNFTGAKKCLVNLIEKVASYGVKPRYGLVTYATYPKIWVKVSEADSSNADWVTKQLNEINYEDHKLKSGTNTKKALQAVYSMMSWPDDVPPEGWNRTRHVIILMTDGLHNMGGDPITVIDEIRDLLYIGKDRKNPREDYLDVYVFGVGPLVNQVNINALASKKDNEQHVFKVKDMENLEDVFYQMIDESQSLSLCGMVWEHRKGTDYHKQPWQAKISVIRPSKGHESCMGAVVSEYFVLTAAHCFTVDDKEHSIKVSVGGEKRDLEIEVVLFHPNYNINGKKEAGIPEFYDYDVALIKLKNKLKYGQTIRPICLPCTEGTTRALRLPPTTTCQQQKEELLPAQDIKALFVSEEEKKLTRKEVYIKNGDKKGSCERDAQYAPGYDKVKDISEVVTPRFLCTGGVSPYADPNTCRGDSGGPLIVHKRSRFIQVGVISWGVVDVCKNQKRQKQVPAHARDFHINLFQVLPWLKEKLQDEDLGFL
T3 sequence (P00751 260-764 limits assumed): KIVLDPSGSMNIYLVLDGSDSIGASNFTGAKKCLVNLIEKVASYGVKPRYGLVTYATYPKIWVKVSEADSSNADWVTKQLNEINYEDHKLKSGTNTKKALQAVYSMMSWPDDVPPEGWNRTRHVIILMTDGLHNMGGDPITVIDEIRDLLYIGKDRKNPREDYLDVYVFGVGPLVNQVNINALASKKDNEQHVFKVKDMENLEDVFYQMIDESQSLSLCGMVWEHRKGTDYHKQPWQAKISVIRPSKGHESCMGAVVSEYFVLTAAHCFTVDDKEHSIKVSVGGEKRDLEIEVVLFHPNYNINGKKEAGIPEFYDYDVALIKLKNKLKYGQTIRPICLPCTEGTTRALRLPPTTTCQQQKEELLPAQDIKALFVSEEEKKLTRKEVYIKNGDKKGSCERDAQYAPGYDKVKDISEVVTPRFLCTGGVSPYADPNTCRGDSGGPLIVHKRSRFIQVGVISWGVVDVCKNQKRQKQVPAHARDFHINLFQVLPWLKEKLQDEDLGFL

SMILES: O=c1oc(Cl)c(Cl)c2ccccc12 [3,4-dichloroisocoumarin, reference compound]
inhibition of C2 (in words) (complement protein C2): do not show any inhibition
inhibition of protein B (in words) (complement protein B): do not show any inhibition
kinact/KI (human granzyme A): 50 M⁻¹ s⁻¹
PT ([1]; [I] 33 μM, 3 min, Orthobrain thromboplastin): 14.3 s

SMILES: N=C(N)SCCOc1oc(=O)c2ccccc2c1Cl [3-(2-isothiureidoethoxy)-4-chloroisocoumarin]
kinact/KI (complement protein C2): 1.5 M⁻¹ s⁻¹
kinact/KI (complement protein B): 13 M⁻¹ s⁻¹
kinact/KI (Bb): 15 M⁻¹ s⁻¹

kinact/KI (human granzyme A): 2010 M⁻¹ s⁻¹
SMILES: NCCCOc1oc(=O)c2ccccc2c1Cl [3-(3-aminopropoxy)-4-chloroisocoumarin]

SMILES: N=C(N)SCCCOc1oc(=O)c2ccccc2c1Cl [3-(3-isothiureidopropoxy)-4-chloroisocoumarin]
kinact/KI (complement protein C2): 0.5 M⁻¹ s⁻¹
kinact/KI (complement protein B): 0.4 M⁻¹ s⁻¹
kinact/KI (Bb): 0.8 M⁻¹ s⁻¹
kinact/KI (human granzyme A): 18400 M⁻¹ s⁻¹
half-life [2]: 0.5 min

kinact/KI (human factor Xa; Table I, [I] 5 to 105 μM): 60 M⁻¹ s⁻¹
kinact/KI (human granzyme A): 6750 M⁻¹ s⁻¹
stability in human plasma (in words) [2]: fairly stable
half-life [2]: 165 min
SMILES: N=C(N)SCCCOc1oc(=O)c2cc(N)ccc2c1Cl [7-amino-4-chloro-3-(3-isothiureidopropoxy)isocoumarin]
PT ([1]; [I] 33 μM, 1 min, Dade thromboplastin): 13.7 s
PT ([1]; [I] 131 μM, 1 min, Dade thromboplastin): 62.0 s

SMILES: CCOc1oc(=O)c2cc(NC(=N)N)ccc2c1Cl [7-guanidino-3-ethoxy-4-chloroisocoumarin, 7-guanidino-4-chloro-3-ethoxyisocoumarin]
kinact/KI (human factor Xa; Table I, [I] 5 to 105 μM): 11000 M⁻¹ s⁻¹
kinact/KI (complement protein B): 167 M⁻¹ s⁻¹
kinact/KI (Bb): 95 M⁻¹ s⁻¹
kinact/KI (human granzyme A): 6850 M⁻¹ s⁻¹
half-life [2]: 8.2 min
PT ([1]; [I] 15 μM, 1 min, Dade thromboplastin): 14.2 s
PT ([1]; [I] 31 μM, 1 min, Dade thromboplastin): 27.4 s
PT ([1]; [I] 31 μM, 3 min, Orthobrain thromboplastin): 17.2 s
PT ([1]; [I] 124 μM, 3 min, Orthobrain thromboplastin): > 120 s

SMILES: N=C(N)Nc1ccc2c(Cl)c(OCCc3ccccc3)oc(=O)c2c1 [7-guanidino-4-chloro-3-(2-phenylethoxy)isocoumarin]
kinact/KI (human factor Xa; Table I, [I] 5 to 105 μM): 11000 M⁻¹ s⁻¹
kinact/KI (Bb): 58 M⁻¹ s⁻¹
half-life [2]: 4.5 min

SMILES: COc1oc(=O)c2cc(NC(=N)N)ccc2c1Cl [7-guanidino-4-chloro-3-methoxyisocoumarin]
kinact/KI (human factor Xa; Table I, [I] 5 to 105 μM): 11000 M⁻¹ s⁻¹
kinact/KI (complement protein B): 285 M⁻¹ s⁻¹
kinact/KI (Bb): 74 M⁻¹ s⁻¹
half-life [2]: 6.7 min

kinact/KI (human factor Xa; Table VIII, [I] 3.6-44 μM): 4740 M⁻¹ s⁻¹
SMILES: N=C(N)SCCOc1oc(=O)c2cc(NC(=O)Nc3ccccc3)ccc2c1Cl [PhNHCONH-CiTEtOIC, 7-(phenylcarbamoylamino)-4-chloro-3-(2-isothiureidoethoxy)isocoumarin]
